Experimental findings from EP4813381A1, “PHARMACEUTICAL USE OF GUAIANE SESQUITERPENE DERIVATIVE” (Nanjing University Of Chinese Medicine, priority 2023, dated 2025) are described below.

In series [1] the test system is MDSCs and T cells. The series is described as follows: T cell proliferation in a co-culture model of MDSCs and T cells (flow cytometry). The conditions noted are these: MDSCs treated with 1 µM compound for 12 h, 48 h co-culture with T cells (1:1), compared to the control group. It counts as cell-based, mice. As for the experimental part: Under sterile conditions, the tibia was removed, both ends of the bone were cut, and bone marrow was repeatedly flushed into a 15 mL centrifuge tube using a 1 mL syringe filled with culture medium. Centrifuge at 1600 rpm for 5 min to collect bone marrow cells. […] The spleen cell suspension was then transferred into a 15 mL centrifuge tube. Centrifuge at 1600 rpm for 5 min to collect T cells. Wash twice with 1×PBS. Resuspend the centrifuged T cells in 1 mL PBS and add 1 mL of 10 µM CFDA-SE solution. Incubate at room temperature for 8 min. […] After drug administration, collect MDSC cells into centrifuge tubes. Centrifuge at 1600 rpm for 5 min, remove supernatant, resuspend in 1 mL fresh medium, and plate. Add 1 mL stimulated activated T cells (1:1 ratio) for 48 h co-culture. After incubation, collect cells into centrifuge tubes, wash twice with PBS, and incubate with Fc antibody at room temperature in the dark for 10 min. Add CD3-labeled flow cytometry antibody and incubate at 4 °C in the dark for 30 min. After incubation, wash cells with PBS, resuspend in 300 µL PBS, and analyze by flow cytometry.

Series [2] in a line: Conversion rate of salt-form prodrugs to parent compound in HEPES buffer solution. It counts as physicochemical. As for the experimental part:
Adjust the pH to 7.4 using 0.5 M NaOH, then dilute to a final volume 100 mL with distilled water.
(§1) Sample Analysis: Dissolve 0.6 mg of the compound in 250 µl of deionized water separately. Add 250 µl of mouse serum or HEPES 7.4 solution to the sample, incubate at a constant temperature of 37 °C, and collect samples at different time points. Pipette 20 µl of the sample to an EP tube, add 60 µl of methanol, vortex to mix thoroughly, and centrifuge at 12,000 rpm at 4 °C for 10 min. At 1 h, 2 h, 4 h, 8 h, and 12 h respectively, collect the supernatant for HPLC analysis. Inject 10 µL of sample and record the corresponding peak areas.

A short description of series [3]: Conversion rate of salt-form prodrugs to parent compound in mouse plasma. It is filed as in vitro ADME. The conditions noted are these: 37 °C. As to the method:
Pharmaceutically acceptable salts of guaiane-type sesquiterpene lactone derivatives were selected and evaluated for their conversion rates to Compound 1 and Compound 83 in plasma and HEPES buffer, with results shown in Tables 2-1, 2-2, 3-1, and 3-2.
Plasma Preparation: Collect mouse plasma into an EP tube pre-loaded with sodium heparin, centrifuge at 8000 rpm for 10 minutes at 4°C, and then collect the supernatant.
as §1, with “areas. Chromatographic conditions: Hanbang C18 column (4.6 × 250 mm, 5 µm); mobile phase: acetonitrile: […] ammonium formate solution = 60:40; flow rate 1.0 mL/min; detection wavelength 210 nm; column temperature 30 °C. [drawing 171] Table 2-1. Conversion Rate of Compounds 20-42 to Compound 1 at Different Time Points in HEPES Buffer Solution” for “areas.”

Where [4] appears, read: conversion to Compound 1, HEPES buffer pH 7.4, 37 °C, 1 h.
Setting [5] is: conversion to Compound 1, HEPES buffer pH 7.4, 37 °C, 2 h.
The mark [6] stands for this setting: conversion to Compound 1, HEPES buffer pH 7.4, 37 °C, 4 h.
Where [7] appears, read: conversion to Compound 1, HEPES buffer pH 7.4, 37 °C, 8 h.
Setting [8] is: conversion to Compound 1, HEPES buffer pH 7.4, 37 °C, 12 h.
Where [9] appears, read: conversion to Compound 1, mouse plasma, 1 h.
Where [10] appears, read: conversion to Compound 1, mouse plasma, 2 h.
The mark [11] stands for this setting: conversion to Compound 1, mouse plasma, 4 h.
The mark [12] stands for this setting: conversion to Compound 1, mouse plasma, 8 h.
Setting [13] is: conversion to Compound 1, mouse plasma, 12 h.
Where [14] appears, read: conversion to Compound 83, HEPES buffer pH 7.4, 37 °C, 1 h.
The mark [15] stands for this setting: conversion to Compound 83, HEPES buffer pH 7.4, 37 °C, 2 h.
Where [16] appears, read: conversion to Compound 83, HEPES buffer pH 7.4, 37 °C, 4 h.
Where [17] appears, read: conversion to Compound 83, HEPES buffer pH 7.4, 37 °C, 8 h.
The mark [18] stands for this setting: conversion to Compound 83, HEPES buffer pH 7.4, 37 °C, 12 h.
The mark [19] stands for this setting: conversion to Compound 83, mouse plasma, 1 h.
The mark [20] stands for this setting: conversion to Compound 83, mouse plasma, 2 h.
[21] abbreviates: conversion to Compound 83, mouse plasma, 4 h.
[22] abbreviates: conversion to Compound 83, mouse plasma, 8 h.
Where [23] appears, read: conversion to Compound 83, mouse plasma, 12 h.

With `C=C1C(=O)O[C@H]2[C@H]1CCC(C)=C1CC[C@@](C)(OC(=O)NCCO)[C@@H]12` [compound 71], in series [1], the “T-cell proliferation rate (%)” value was “+++ (T-cell proliferation rate >40% compared to the control group)”.

Regarding `C=C1C(=O)O[C@H]2[C@H]1CCC(C)=C1CC[C@@](C)(OC(=O)NC(CC)CC)[C@@H]12` [compound 69], the “T-cell proliferation rate (%)” value in series [1] was “++ (T-cell proliferation rate within the 20-40% range compared to the control group)”.

As for `C=C1C(=O)O[C@H]2[C@H]1CCC(C)=C1CC[C@@](C)(OC(=O)N(C)C)[C@@H]12` [compound 80], the “T-cell proliferation rate (%)” value in series [1] is on record as “++ (T-cell proliferation rate within the 20-40% range compared to the control group)”.

With `C=C1C(=O)O[C@H]2[C@H]1CCC(C)=C1CC[C@@](C)(OC(=O)NCC)[C@@H]12` [compound 65], in series [1], the “T-cell proliferation rate (%)” value is listed as “+ (T-cell proliferation rate within the 0-20% range compared to the control group)”.

Regarding `C=C1C(=O)O[C@H]2[C@H]1CCC(C)=C1CC[C@@](C)(OC(=O)NCCCN3CCN(C)CC3)[C@@H]12` [compound 93], the “T-cell proliferation rate (%)” value in series [1] is reported as “++ (T-cell proliferation rate within the 20-40% range compared to the control group)”.

`C=C1C(=O)O[C@H]2[C@H]1CCC(C)=C1CC[C@@](C)(OC(=O)NC(C)C)[C@@H]12` [compound 68]: the “T-cell proliferation rate (%)” value in series [1] is recorded as “+ (T-cell proliferation rate within the 0-20% range compared to the control group)”.

As for `CC1=C2[C@H]3OC(=O)[C@@H](CN(C)C)[C@@H]3CC[C@@]3(C)C[C@@]23CC1` [compound 62], the “T-cell proliferation rate (%)” value in series [1] is on record as “+ (T-cell proliferation rate within the 0-20% range compared to the control group)”.

As to `C=C1C(=O)O[C@H]2[C@H]1CCC(C)=C1CC[C@@](C)(OC(=O)NCCOCCO)[C@@H]12` [compound 76], the “T-cell proliferation rate (%)” value in series [1] is reported as “++ (T-cell proliferation rate within the 20-40% range compared to the control group)”.

`C[C@@]12CC[C@@H]3[C@H](OC(=O)[C@H]3CN3CCC3)[C@@H]3[C@]1(CC[C@@]3(C)O)C2` [compound 33]: the Release rate is given as 6.9% in series [2] (setting [4]); 15.8% in series [2] (setting [5]); 26.0% in series [2] (setting [6]); 41.8% in series [2] (setting [7]); 51.1% in series [2] (setting [8]); 6.9% in series [3] (setting [9]). Moreover, the Release rate is 14.8% in series [3] (setting [10]), 26.0% in series [3] (setting [11]), 42.8% in series [3] (setting [12]) and 50.7% in series [3] (setting [13]).

For `CN(C)C[C@@H]1C(=O)O[C@H]2[C@H]1CC[C@@]1(C)C[C@]13CC[C@@](C)(O)[C@H]23` [compound 39], the Release rate in series [2] (setting [4]) is recorded as 6.6%; in series [2] (setting [5]), 15.0%; in series [2] (setting [7]), 42.7%; in series [2] (setting [8]), 54.3%; in series [3] (setting [9]), 6.6%; in series [3] (setting [10]), 14.0%. For the same compound, the Release rate in series [3] (setting [12]) is 43.6%; in series [3] (setting [13]) it was 52.8%.

With `CC1=C2CC[C@@](C)(OC(=O)N3CCCCC3)[C@@H]2[C@H]2OC(=O)[C@@H](CN3CCCC3)[C@@H]2CC1` [compound 100], the Release rate is recorded as 6.5% in series [2] (setting [14]); 14.0% in series [2] (setting [15]); 26.4% in series [2] (setting [16]); 45.2% in series [2] (setting [17]); 51.4% in series [2] (setting [18]); 6.6% in series [3] (setting [19]). For the same compound, the Release rate was found to be 13.8% in series [3] (setting [20]), 25.6% in series [3] (setting [21]), 43.2% in series [3] (setting [22]) and 53.0% in series [3] (setting [23]).

Take `CN(C)C[C@@H]1C(=O)O[C@H]2[C@H]1CC[C@@]1(C)C[C@]13CC[C@@](C)(O)[C@H]23` [compound 41]: the Release rate in series [2] (setting [4]) stood at 7.0%; in series [2] (setting [5]), 16.2%; in series [2] (setting [6]), 27.3%; in series [2] (setting [7]) it was 43.4%; in series [2] (setting [8]), 53.2%; in series [3] (setting [9]), 7.8%. Moreover, the Release rate stood at 17.2% in series [3] (setting [10]), 28.0% in series [3] (setting [11]), 46.1% in series [3] (setting [12]) and 54.8% in series [3] (setting [13]).

On to `CCN(CC)C[C@@H]1C(=O)O[C@H]2[C@H]1CC[C@@]1(C)C[C@]13CC[C@@](C)(O)[C@H]23` [compound 28], for which the Release rate in series [2] (setting [4]) worked out at 6.8%; in series [2] (setting [5]), 14.5%; in series [2] (setting [6]), 24.4%; in series [2] (setting [7]), 40.4%; in series [2] (setting [8]), 50.0%; in series [3] (setting [9]), 6.8%. In addition, the Release rate in series [3] (setting [10]) was found to be 14.5%; in series [3] (setting [11]) it was 24.4%; in series [3] (setting [12]), 40.4%; in series [3] (setting [13]) it was 49.1%.

`C[C@@]12CC[C@@H]3[C@H](OC(=O)[C@H]3CN3CCC(N4CCOCC4)CC3)[C@@H]3[C@]1(CC[C@@]3(C)O)C2` [compound 36]: the Release rate is reported as 6.9% in series [2] (setting [4]); 14.8% in series [2] (setting [5]); 26.0% in series [2] (setting [6]); 43.6% in series [2] (setting [7]); 52.4% in series [2] (setting [8]); 6.6% in series [3] (setting [9]). For the same compound, the Release rate is reported as 14.8% in series [3] (setting [10]), 26.0% in series [3] (setting [11]), 43.6% in series [3] (setting [12]) and 52.1% in series [3] (setting [13]).

Take `C[C@@]12CC[C@@H]3[C@H](OC(=O)[C@H]3CN3CCCCCCC3)[C@@H]3[C@]1(CC[C@@]3(C)O)C2` [compound 38]: the Release rate was 6.9% in series [2] (setting [4]); 14.8% in series [2] (setting [5]); 25.4% in series [2] (setting [6]); 41.4% in series [2] (setting [7]); 50.7% in series [2] (setting [8]); 6.1% in series [3] (setting [9]). The Release rate in series [3] (setting [10]) worked out at 14.5%; in series [3] (setting [11]) it was 25.4%; in series [3] (setting [12]), 41.4%; in series [3] (setting [13]), 49.7%.

`CC1=C2CC[C@@](C)(OC(=O)N3CCCCC3)[C@@H]2[C@H]2OC(=O)[C@@H](CN3CCCC3)[C@@H]2CC1` [compound 101]: the Release rate was determined as 7.0% in series [2] (setting [14]); 16.0% in series [2] (setting [15]); 28.2% in series [2] (setting [16]); 46.4% in series [2] (setting [17]); 53.6% in series [2] (setting [18]); 7.6% in series [3] (setting [19]). Also, the Release rate is 16.6% in series [3] (setting [20]), 27.4% in series [3] (setting [21]), 46.0% in series [3] (setting [22]) and 54.2% in series [3] (setting [23]).

As for `CC(C)N(C[C@@H]1C(=O)O[C@H]2[C@H]1CC[C@@]1(C)C[C@]13CC[C@@](C)(O)[C@H]23)C(C)C` [compound 31], the Release rate amounted to 6.7% in series [2] (setting [4]); 14.0% in series [2] (setting [5]); 23.0% in series [2] (setting [6]); 41.2% in series [2] (setting [7]); 49.5% in series [2] (setting [8]); 6.5% in series [3] (setting [9]). Besides, the Release rate in series [3] (setting [10]) was 13.9%; in series [3] (setting [11]), 24.4%; in series [3] (setting [12]) it was 40.2%; in series [3] (setting [13]), 48.5%.
